Test results taken from US8010296B2, “Apparatus and method for removing non-discriminatory indices of an indexed dataset” (Drexel University, priority 2002, dated 2011).

Test system: rat liver
Conditions: treated rats, liver samples; selection by visual inspection and ALT measurement
Description: Forty-eight polypeptide spectra were prepared from rat liver samples under four toxicological conditions (G=4).
While it was desirable that samples from each group be completely separated from those of other groups, it was especially important that samples from Group 4 (high toxicity) were separated from the others.

SMILES	Toxicity
ClC(Cl)(Cl)Cl [Carbon Tetrachloride (CCl4), Carbon Tetrachloride]	Mild
S=C=Nc1cccc2ccccc12 [Alpha-naphthyl Isothiocyanate (ANIT), Alpha-naphthyl Isothiocyanate]	Mild
